Experimental data taken from patent publication US7371536B2, “Methods for transporting vitamin C” (priority 1999, dated 2008).

Target: T1, human SVCT1 (Homo sapiens, UniProt Q9UHI7)
T1 construct: expressed in transfected cells; host or cells: Xenopus laevis oocytes injected with cRNA (vector pTLN2)
Assay: L-[14C]ascorbic acid radiotracer uptake in Xenopus oocytes expressing human SVCT1
Format: cell-based
Method: Functional characterization in Xenopus oocytes—SVCT1 and SVCT2 cDNAs were subcloned into the pTLN2 vector (to improve functional expression in oocytes) and used for cRNA synthesis in vitro using the MEGAscript kit and T7 RNA polymerase (from Ambion). Oocytes were isolated from Xenopus laevis, treated with collagenase A and maintained at 18° C. in modified Barths' medium. Oocytes were injected with 15 ng SVCT1 or SVCT2 cRNA or water only. The radiotracer uptake and voltage-clamp experiments described below were conducted 2-5 days post-injection in standard medium of composition 100 mM NaCl, 2 mM KCl, 1 mM CaCl2, 1 mM MgCl2, and 10 mM HEPES (buffered to pH 7.5 with Tris base). For low-Na^+ or Na^+-free media, NaCl was replaced with choline chloride. For pH-dependence experiments, Na^+ media were buffered to between pH 5.5 and pH 8.0 using 0-5 mM MES, 0-5 mM HEPES and 0-5 mM Tris base. L-Ascorbic acid-containing solutions were always freshly prepared and used immediately. […] Oocytes were solubilized with 10% SDS and carbon-14 content measured by liquid scintillation counting. A two-microelectrode voltage-clamp was used to measure currents associated with SVCT1 expressed in oocytes. Oocytes were superfused at 22° C. in standard Na^+ medium and clamped at −50 mV. Current was continuously monitored by sampling at 1 Hz. Test solutions were always washed out with substrate-free, Na^+-free medium at pH 7.5 for several minutes. Once again, saturation kinetics data were fit to a modified Hill equation in which I and Imax were replaced by uptake V and maximal velocity Vmax for analysis of radiotracer uptake data.

T1 sequence (Q9UHI7 whole entry): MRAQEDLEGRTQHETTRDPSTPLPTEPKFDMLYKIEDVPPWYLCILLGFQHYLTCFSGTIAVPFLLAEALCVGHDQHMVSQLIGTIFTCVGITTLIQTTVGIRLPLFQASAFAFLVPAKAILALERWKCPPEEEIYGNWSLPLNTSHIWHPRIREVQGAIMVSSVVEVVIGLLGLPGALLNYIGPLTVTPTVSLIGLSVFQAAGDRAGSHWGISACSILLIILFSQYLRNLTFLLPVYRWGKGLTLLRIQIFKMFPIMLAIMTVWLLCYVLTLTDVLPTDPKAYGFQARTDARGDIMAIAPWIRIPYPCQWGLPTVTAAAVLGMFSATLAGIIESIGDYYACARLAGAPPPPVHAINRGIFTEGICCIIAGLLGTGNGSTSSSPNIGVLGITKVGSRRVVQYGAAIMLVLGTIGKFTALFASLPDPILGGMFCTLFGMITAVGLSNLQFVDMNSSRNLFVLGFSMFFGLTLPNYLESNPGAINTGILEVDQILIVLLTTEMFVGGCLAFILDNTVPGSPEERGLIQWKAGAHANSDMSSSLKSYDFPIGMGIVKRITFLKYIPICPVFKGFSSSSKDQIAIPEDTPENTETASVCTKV

## O=C1O[C@H]([C@@H](O)CO)C(O)=C1O [L-ascorbic acid]
500 μM L-[14C]ascorbic acid
  stimulation of uptake compared with water-injected control oocytes: 200 fold
  uptake of L-[14C]ascorbic acid: 15.5±1.2 pmol/min per oocyte
Radiotracer uptake
  Hill coefficient (nH): ~1
Radiotracer uptake, Michaelis-Menten-type saturation
  half-maximal concentration (K0.5) of uptake: ≈ 90 μM
